Structures are written as SMILES. Calls of active or inactive are those of the source. The calls are words filed in the database; no cut-off is given here.

One test is filed under the species Mus musculus. Put plainly: Compound was tested for cytotoxicity against mouse macrophage RAW 264.7 cells using MTT assay; Inactive. The test is classed as functional, cell-based. In general terms: Tetrazolium dyes change colour on reduction, which living cells bring about.
Consider `C=C1COC2Oc3ccc4ccc(=O)oc4c3C12` (stereo not drawn), for which the outcome was inactive.
The same measure, in the same setting: the same measure for `C=CCc1c(O)ccc2ccc(=O)oc12`: “inactive”.
On the same count and under the same terms, the same measure for `CC(C)(O)[C@@H]1Cc2c(ccc3ccc(=O)oc23)O1`: “inactive”.
On the same count and under the same terms, the same measure for `C=C(C)[C@H]1O[C@@H]1c1c(OC)ccc2ccc(=O)oc12`: “inactive”; for `C=CCOc1ccc2ccc(=O)oc2c1`: “inactive”.
`COc1ccc2ccc(=O)oc2c1C1=C(C)COC1=O`: the outcome was inactive.
Take `O=c1ccc2c(O)cc(O)cc2o1`: the result was inactive.

The species entered for a further test is Mus musculus. Briefly: Compound was tested for the inhibitory activity against mouse macrophage RAW 264.7 cells at the concentration of 50 uM; Inactive. In kind it is functional, cell-based.
On to `C=CC(C)(C)c1cc2c(O)c3c(c(C(C)(C)C=C)c2oc1=O)OC(C)(C)C=C3` [CLAUSARIN], for which the outcome was inactive.
As to `C=CC(C)(C)Oc1c2c(c(C(C)(C)C=C)c3oc(=O)ccc13)OC(C)(C)C=C2`, the outcome was inactive.
As to `CC(C)=CCC/C(C)=C/CC/C(C)=C/COc1ccc2ccc(=O)oc2c1`, the result was inactive.
On to `CC(C)=CCc1c(O)ccc2ccc(=O)oc12`, for which the result was inactive.
`C=CC(C)(C)c1c2c(c(O)c3ccc(=O)oc13)C=CC(C)(C)O2` [NORDENTATIN]: the outcome was inactive.
Regarding `CC(C)=CCOc1ccc2ccc(=O)oc2c1`, the result was inactive.

Another test is filed under the species Mus musculus. Briefly: Percent inhibition of nitric oxide generation in both lipopolysaccharide and interferon gamma induced mouse macrophage RAW 264.7 cells. In kind it is functional.
By Inhibition is commonly meant the drop in the measured response relative to a control, in per cent. The molecule `C=C(COC(=O)CC(C)C)C1OC1c1c(OC)ccc2ccc(=O)oc12` (stereo not drawn) yielded an Inhibition of 86.1%.
`CC1(C)OC1COc1c2occc2cc2ccc(=O)oc12` (stereo not drawn) [HERACLENINPRANGENIN] returned an Inhibition of 36.9%.

A further test is filed under the species Mus musculus. Put plainly: Percent inhibition of nitric oxide generation in both lipopolysaccharide and interferon gamma induced mouse macrophage RAW 264.7 cells at the concentration of 10 uM. In kind it is functional.
The term inhibition denotes the relative decrease from the control value, in per cent. Low values mean a weak effect, high ones a strong effect. As for `C=CC(C)(C)c1cc2c(O)c3c(c(C(C)(C)C=C)c2oc1=O)OC(C)(C)C=C3` [CLAUSARIN], the inhibition at 10 µM turned out to be 91.2%.
Still for that read-out and setting: the result for `C=CC(C)(C)Oc1c2c(c(C(C)(C)C=C)c3oc(=O)ccc13)OC(C)(C)C=C2` reads 91.2%.
With `C=CC(C)(C)c1c2c(c(O)c3ccc(=O)oc13)C=CC(C)(C)O2` [NORDENTATIN], testing at 10 µM gave an inhibition of 91.2%.
